Reference: patent US10130619B2, “Amido thiadiazole derivatives as NADPH oxidase inhibitors” (GENKYOTEX SUISSE SA, priority 2014, dated 2018)

Target: hNOX1 (Homo sapiens (Human), UniProt Q9Y5S8)
Assay: ROS production measurement on hNOX1 membranes (Amplex Red fluorescence assay, assay 1)
Type: biochemical
Settings: assay 1: membranes from CHO cells overexpressing hNox1, Amplex Red/HRP fluorescence, NADPH 30 μM; non linear regression (GraphPad Prism); read-out: Nox1 inhibitory constant Ki
Method: Reactive oxygen species (ROS) production generated by hNOX1 enzyme was measured by fluorescence in both cellular and membrane-based assays using the Amplex® Red reagent. In the presence of horseradish peroxidase (HRP), the Amplex® Red reagent (10-acetyl-3,7-dihydroxyphenoxazine, AR), which is a colorless and nonfluorescent derivative of dihydroresorufin, reacts with H2O2 with a 1:1 stoichiometry to produce highly fluorescent resorufin at an excitation and emission wavelengths of 544 nm and 590 nm, respectively.
After resuspension in sonication buffer (11% sucrose, 120 mM NaCl, 1 mM EGTA in PBS, pH 7.4), cells were broken by sonication and centrifuged (200 g, 10 min). The supernatant was layered onto a 17/40% (w/v) discontinuous sucrose gradient and centrifuged (150,000 g for 30 min). Membrane fractions were collected from the 17/40% interface, aliquoted in 10 μl samples and were stored at −80° C. Protein concentration was determined with Bradford reagent. Flavin Adenine Dinucleotide (FAD) (catalog # F6625-500MG), MgCl2 (catalog # M8266-100G), Phosphatidic Acid (PA) (catalog # P3591-50MG) were purchased from Sigma-Aldrich. […] NADPH (catalog #A1395, 0500) was purchased from Applichem. Amplex red (AR) (catalog # A22177) was purchased from Invitrogen. […] FLUOstar OPTIMA microplate reader was supplied by BMG Labtech (Germany). Zephyr® Compact Liquid Handling Workstation was supplied by PerkinElmer (Germany).
Assay 1: ROS Production Measurement on hNOX1 Membranes
All solutions were placed on ice and protected from light.
The NADPH was dissolved in water at a concentration of 12 mM and was transferred in a metal transfer plate kept at 4° C. The NADPH was added to the assay plate to initiate the reaction just before the measurement.
Serial dilution (1:3, 10 serial dilution) of the compounds was performed in 100% DMSO in 96 well polypropylene plate—Row B-H […], Row A, Column 1-10 contained reference compound. Starting concentration was 10^−2 M (10 mM). Final concentration in assay was 10^−4 M (100 μM). Compounds were diluted twice in PBS buffer by transferring 30 μl/well of PBS into 30 μl/well compounds sample in DMSO using Zephyr® Compact Liquid Handling Workstation. Control wells-columns 1 and 12-contained 60 μl DMSO in 50% PBS pH7.
Reaction mixture is dispensed using Zephyr® Compact Liquid Handling Workstation. 90 μl of mix with membrane were dispensed into 96 well black plates—Column 2-11, Column 1 Row A-D, Column 12 Row E-H. 90 μl of control mix were dispensed into assay plate—Column 1 Row E-H, Column 12 Row A-D, which are wells for measuring background signal. 2 μl of compounds were dispensed into each well of assay plate using Zephyr® Compact Liquid Handling Workstation. The reaction mixture with compounds was incubated in assay plates for 20 min at 37° C. in a Titramax microplate incubator with gentle agitation. 10 μl of NADPH is dispensed to the assay plate. Fluorescence reading was recorded with the FLUOstar OPTIMA microplate reader for 10 min at 37° C. (8 cycles, 1 cycle duration 55 sec).

Chain of hNOX1 (Q9Y5S8 whole entry): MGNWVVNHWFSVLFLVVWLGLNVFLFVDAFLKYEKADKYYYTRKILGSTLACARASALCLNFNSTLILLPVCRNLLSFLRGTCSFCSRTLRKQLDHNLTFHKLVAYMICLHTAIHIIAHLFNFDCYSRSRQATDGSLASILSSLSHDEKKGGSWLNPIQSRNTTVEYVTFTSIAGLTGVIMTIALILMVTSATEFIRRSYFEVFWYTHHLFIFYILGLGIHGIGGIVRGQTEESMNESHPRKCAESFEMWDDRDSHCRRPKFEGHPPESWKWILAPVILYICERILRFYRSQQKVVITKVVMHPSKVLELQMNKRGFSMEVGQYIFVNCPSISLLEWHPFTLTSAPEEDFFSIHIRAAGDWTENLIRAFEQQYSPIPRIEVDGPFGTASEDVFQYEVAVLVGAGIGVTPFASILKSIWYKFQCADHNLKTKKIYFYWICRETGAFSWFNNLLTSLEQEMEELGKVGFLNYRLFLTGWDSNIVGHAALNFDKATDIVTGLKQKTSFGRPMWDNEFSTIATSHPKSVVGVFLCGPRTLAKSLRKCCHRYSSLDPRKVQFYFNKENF
Chain of hNOX1 (P13498 whole entry partner): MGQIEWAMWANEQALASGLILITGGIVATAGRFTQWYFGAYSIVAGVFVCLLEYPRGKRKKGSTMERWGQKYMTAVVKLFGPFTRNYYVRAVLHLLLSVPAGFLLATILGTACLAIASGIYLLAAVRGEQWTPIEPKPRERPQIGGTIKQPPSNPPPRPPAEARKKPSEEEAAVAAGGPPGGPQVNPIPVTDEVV

Compound | Ki
COc1cc(C(=O)Nc2nnc(-c3ccncc3)s2)ccc1OCc1nccn1C [Example 19, 3-methoxy-4-((1-methyl-1H-imidazol-2-yl)methoxy)-N-(5-(pyridin-4-yl)-1,3,4-thiadiazol-2-yl)benzamide] | 0.22 µM
COCCNc1cc(C(=O)Nc2nnc(-c3ccncc3)s2)cnc1O[C@@H](C)c1ccccc1 [Example 22, (S)-5-((2-methoxyethyl)amino)-6-(1-phenylethoxy)-N-(5-(pyridin-4-yl)-1,3,4-thiadiazol-2-yl)nicotinamide] | 0.018 µM
CN1CCN(c2cc(C(=O)Nc3nnc(-c4ccncc4)s3)cnc2OCc2ccccc2)CC1 [Example 24, 6-(benzyloxy)-5-(4-methylpiperazin-1-yl)-N-(5-(pyridin-4-yl)-1,3,4-thiadiazol-2-yl)nicotinamide] | 0.062 µM
COc1cc(C(=O)Nc2nnc(-c3ccncc3)s2)ccc1CN1Cc2ccccc2C1 [Example 40, 4-(isoindolin-2-ylmethyl)-3-methoxy-N-(5-(pyridin-4-yl)-1,3,4-thiadiazol-2-yl)benzamide] | 0.19 µM

More lines, now with the values ahead:

Ki | Compound
0.064 µM | CC(C)(O)[C@H](Oc1ncc(C(=O)Nc2nnc(-c3ccncc3)s2)cc1Cl)c1ccccc1 [Example 29, (R)-5-chloro-6-(2-hydroxy-2-methyl-1-phenylpropoxy)-N-(5-(pyridin-4-yl)-1,3,4-thiadiazol-2-yl)nicotinamide]
0.045 µM | CC(Cc1ccccc1)Oc1ccc(C(=O)Nc2nnc(-c3ccncc3)s2)cn1 (centres unmarked) [Example 34, 6-((1-phenylpropan-2-yl)oxy)-N-(5-(pyridin-4-yl)-1,3,4-thiadiazol-2-yl)nicotinamide]
0.038 µM | C[C@H](Oc1ncc(C(=O)Nc2nnc(-c3ccncc3)s2)cc1OCC1CCOCC1)c1ccccc1 [Example 37, (S)-6-(1-phenylethoxy)-N-(5-(pyridin-4-yl)-1,3,4-thiadiazol-2-yl)-5-((tetrahydro-2H-pyran-4-yl)methoxy)nicotinamide]
0.1 µM | O=C(Nc1nnc(-c2ccncc2)s1)c1ccc(O[C@@H](CN2CCOCC2)c2ccccc2)nc1 [Example 39, (R)-6-(2-morpholino-1-phenylethoxy)-N-(5-(pyridin-4-yl)-1,3,4-thiadiazol-2-yl)nicotinamide]
